Test results from PMC4673153, “Discovery of benzo[e]pyridoindolones as kinase inhibitors that disrupt mitosis exit while erasing AMPK-Thr172 phosphorylation on the spindle” (Oncotarget, 2015).
Where a name gives a salt, the structure may show the parent alone.

How the values were obtained:
Assay type in all cases: biochemical
Sik2 = Sik2 (Homo sapiens, UniProt Q9H0K1); experiment: in vitro kinase assay, recombinant enzyme (MRC Dundee)
phosphorylase kinase = experiment: as above
CaMKKβ = biological target: T1, CaMKKβ (Homo sapiens, UniProt Q96RR4); experiment: kinase panel profiling at […], recombinant enzyme (MRC Dundee)
T1 construct: gene CAMKK2

ARK5/Nuak1 = biological target: T2, ARK5/Nuak1 (Homo sapiens, UniProt O60285); experiment: in vitro kinase assay, recombinant enzyme (MRC Dundee)
T2 sequence (O60285 1-661): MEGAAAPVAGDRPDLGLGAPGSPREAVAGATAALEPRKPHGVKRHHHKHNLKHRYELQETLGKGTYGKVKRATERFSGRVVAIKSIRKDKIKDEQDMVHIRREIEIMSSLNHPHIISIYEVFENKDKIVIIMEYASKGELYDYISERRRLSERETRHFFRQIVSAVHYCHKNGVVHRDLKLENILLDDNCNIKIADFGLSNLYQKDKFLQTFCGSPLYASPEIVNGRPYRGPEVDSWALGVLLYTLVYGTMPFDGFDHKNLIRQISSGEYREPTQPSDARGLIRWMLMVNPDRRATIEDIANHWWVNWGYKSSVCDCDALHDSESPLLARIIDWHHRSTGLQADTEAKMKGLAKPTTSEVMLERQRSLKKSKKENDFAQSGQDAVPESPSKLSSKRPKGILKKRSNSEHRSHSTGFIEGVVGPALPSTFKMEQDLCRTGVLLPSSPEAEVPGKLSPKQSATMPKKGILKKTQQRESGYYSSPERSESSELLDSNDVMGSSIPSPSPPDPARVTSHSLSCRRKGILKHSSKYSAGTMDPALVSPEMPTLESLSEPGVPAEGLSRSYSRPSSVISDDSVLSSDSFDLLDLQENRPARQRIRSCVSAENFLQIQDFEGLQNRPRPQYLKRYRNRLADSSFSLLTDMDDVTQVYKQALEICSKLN

Chk2 = biological target: T3, Chk2 (Homo sapiens, UniProt O96017); experiment: as above
T3 construct: gene CHEK2

Chk1 = biological target: T4, Chk1 (Homo sapiens, UniProt O14757); experiment: as above
T4 construct: gene CHEK1
T4 sequence (O14757 1-476): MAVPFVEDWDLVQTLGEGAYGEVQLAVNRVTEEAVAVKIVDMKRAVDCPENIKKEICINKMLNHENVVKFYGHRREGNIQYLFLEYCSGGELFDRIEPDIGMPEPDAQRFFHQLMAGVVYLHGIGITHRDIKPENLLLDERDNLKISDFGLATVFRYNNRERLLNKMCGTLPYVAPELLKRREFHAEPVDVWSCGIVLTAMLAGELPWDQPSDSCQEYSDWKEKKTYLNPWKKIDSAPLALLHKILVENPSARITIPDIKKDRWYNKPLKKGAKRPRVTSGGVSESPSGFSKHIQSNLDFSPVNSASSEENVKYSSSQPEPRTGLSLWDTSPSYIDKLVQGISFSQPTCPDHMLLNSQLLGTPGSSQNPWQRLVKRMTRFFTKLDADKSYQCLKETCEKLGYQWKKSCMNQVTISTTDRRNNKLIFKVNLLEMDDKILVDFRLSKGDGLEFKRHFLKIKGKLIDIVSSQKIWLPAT

Flt1/V-EGFR1 = biological target: T5, Flt1/V-EGFR1 (Homo sapiens, UniProt P17948); experiment: as above
T5 sequence (P17948 781-1338 limits assumed): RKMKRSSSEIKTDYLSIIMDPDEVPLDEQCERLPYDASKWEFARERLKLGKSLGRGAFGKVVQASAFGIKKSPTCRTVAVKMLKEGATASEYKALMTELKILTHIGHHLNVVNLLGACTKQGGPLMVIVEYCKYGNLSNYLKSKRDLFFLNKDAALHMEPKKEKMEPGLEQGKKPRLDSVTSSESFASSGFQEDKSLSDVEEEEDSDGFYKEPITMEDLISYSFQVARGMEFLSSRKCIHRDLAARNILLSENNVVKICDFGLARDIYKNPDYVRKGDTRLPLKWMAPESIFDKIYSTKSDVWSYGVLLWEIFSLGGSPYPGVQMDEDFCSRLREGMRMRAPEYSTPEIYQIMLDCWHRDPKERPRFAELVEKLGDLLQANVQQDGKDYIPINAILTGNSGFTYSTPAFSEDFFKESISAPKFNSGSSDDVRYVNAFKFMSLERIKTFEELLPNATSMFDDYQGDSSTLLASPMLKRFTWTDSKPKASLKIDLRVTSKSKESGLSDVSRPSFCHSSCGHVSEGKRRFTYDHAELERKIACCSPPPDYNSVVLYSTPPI

aurora B kinase = biological target: T6, aurora B kinase (Homo sapiens, UniProt Q96GD4); experiment: as above
T6 construct: gene AURKB

Tak1 = biological target: T7, Tak1 (Homo sapiens, UniProt O43318); experiment: as above
T7 construct: gene MAP3K7
T7 sequence (O43318 1-606): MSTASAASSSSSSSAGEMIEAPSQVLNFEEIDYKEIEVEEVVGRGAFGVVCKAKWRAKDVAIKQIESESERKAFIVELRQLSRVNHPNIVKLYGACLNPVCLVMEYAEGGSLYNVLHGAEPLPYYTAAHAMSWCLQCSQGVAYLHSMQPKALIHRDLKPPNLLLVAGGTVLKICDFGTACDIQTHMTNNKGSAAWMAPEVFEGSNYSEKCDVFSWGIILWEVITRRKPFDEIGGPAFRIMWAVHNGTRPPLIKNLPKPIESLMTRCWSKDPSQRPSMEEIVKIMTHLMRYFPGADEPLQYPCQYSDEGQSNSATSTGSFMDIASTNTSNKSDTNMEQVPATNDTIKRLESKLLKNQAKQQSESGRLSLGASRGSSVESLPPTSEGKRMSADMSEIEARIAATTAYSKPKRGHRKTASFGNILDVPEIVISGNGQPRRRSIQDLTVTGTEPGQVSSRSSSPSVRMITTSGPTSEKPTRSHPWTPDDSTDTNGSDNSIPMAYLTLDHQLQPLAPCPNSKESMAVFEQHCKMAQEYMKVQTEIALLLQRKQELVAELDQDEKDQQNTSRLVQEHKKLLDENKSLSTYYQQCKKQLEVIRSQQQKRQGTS
T7 sequence (Q15750 1-504 partner): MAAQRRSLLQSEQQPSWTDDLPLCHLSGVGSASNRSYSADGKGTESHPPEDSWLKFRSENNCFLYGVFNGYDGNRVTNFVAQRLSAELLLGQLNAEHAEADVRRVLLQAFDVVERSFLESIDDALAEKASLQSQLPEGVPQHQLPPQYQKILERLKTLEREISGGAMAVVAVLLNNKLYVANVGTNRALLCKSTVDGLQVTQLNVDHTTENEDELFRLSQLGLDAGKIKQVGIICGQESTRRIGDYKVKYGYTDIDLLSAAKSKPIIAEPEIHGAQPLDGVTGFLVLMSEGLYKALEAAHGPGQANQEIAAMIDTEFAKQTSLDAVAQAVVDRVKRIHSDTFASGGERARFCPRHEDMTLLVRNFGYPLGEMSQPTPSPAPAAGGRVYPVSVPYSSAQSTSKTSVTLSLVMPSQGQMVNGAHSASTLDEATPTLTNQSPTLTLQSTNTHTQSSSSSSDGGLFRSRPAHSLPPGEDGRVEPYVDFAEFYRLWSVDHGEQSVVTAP

Melk = Melk (Homo sapiens, UniProt Q14680); experiment: as above
Sequence of Melk (Q14680 whole entry): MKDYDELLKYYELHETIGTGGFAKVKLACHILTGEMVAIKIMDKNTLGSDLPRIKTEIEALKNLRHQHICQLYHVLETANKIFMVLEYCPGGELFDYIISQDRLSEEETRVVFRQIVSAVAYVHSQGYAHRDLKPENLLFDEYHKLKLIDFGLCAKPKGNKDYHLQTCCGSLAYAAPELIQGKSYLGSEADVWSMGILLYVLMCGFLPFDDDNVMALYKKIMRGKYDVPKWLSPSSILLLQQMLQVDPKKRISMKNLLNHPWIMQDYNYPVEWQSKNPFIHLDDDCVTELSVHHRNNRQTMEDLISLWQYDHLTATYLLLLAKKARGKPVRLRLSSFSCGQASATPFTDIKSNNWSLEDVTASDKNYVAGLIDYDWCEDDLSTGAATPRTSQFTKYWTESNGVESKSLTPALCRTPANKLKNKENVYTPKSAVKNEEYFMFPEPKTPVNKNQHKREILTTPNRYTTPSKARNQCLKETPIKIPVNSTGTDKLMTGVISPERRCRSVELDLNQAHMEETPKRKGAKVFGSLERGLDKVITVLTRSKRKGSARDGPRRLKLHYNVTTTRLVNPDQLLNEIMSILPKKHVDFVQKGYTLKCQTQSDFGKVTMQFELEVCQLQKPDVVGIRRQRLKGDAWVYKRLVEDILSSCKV

Sequence of Sik2 (Q9H0K1 whole entry): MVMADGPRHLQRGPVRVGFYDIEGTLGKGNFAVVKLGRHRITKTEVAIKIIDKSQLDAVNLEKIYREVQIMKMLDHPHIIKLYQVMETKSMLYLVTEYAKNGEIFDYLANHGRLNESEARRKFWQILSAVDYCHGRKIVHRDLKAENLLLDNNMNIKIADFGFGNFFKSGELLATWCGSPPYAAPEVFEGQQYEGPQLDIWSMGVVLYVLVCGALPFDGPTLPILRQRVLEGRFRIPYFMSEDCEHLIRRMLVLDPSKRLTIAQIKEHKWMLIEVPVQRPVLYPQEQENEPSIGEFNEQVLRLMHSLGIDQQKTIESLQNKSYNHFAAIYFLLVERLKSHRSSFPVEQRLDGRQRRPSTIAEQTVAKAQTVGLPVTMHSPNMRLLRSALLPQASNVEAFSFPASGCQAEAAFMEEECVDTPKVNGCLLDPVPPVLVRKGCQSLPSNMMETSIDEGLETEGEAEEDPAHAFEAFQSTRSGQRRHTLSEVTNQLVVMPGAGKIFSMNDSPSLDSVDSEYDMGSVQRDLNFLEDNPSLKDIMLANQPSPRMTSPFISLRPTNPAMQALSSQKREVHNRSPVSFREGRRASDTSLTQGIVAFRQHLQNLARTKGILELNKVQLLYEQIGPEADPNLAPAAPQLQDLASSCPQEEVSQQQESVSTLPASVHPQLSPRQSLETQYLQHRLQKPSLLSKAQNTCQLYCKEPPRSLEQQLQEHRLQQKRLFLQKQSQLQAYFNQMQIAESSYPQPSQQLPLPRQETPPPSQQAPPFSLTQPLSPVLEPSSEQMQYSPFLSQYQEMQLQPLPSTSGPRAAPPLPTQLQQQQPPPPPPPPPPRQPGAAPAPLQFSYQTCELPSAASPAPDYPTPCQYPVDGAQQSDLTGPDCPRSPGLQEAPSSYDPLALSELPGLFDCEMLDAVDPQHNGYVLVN
T1 sequence (Q96RR4 2-588): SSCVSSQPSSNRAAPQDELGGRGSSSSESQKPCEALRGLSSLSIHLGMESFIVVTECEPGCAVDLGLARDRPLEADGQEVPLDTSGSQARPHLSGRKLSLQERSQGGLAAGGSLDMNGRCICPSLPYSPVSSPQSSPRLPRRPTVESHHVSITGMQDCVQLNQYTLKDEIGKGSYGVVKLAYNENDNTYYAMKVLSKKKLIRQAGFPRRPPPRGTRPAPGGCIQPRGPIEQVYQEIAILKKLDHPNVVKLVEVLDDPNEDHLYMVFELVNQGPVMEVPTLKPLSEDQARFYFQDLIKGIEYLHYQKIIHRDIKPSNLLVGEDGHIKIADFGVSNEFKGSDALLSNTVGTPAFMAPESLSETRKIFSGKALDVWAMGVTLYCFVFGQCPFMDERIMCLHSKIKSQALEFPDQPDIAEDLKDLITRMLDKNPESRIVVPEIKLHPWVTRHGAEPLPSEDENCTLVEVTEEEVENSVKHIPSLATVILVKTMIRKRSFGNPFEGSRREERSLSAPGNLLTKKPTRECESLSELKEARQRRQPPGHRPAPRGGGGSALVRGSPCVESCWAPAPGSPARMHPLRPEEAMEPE
T3 sequence (O96017 whole entry): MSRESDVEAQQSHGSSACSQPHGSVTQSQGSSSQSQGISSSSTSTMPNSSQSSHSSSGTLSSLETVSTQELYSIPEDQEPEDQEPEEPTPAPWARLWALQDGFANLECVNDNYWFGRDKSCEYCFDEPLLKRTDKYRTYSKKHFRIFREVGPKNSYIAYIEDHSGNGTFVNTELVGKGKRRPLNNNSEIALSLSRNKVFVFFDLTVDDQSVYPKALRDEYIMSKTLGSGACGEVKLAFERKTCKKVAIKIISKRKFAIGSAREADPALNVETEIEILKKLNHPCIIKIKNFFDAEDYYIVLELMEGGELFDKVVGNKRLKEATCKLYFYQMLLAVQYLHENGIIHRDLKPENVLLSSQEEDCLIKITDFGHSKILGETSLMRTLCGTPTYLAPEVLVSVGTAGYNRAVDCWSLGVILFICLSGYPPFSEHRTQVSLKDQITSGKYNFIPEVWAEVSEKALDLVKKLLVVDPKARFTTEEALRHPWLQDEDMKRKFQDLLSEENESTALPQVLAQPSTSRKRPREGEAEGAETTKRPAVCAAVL
T6 sequence (Q96GD4 whole entry): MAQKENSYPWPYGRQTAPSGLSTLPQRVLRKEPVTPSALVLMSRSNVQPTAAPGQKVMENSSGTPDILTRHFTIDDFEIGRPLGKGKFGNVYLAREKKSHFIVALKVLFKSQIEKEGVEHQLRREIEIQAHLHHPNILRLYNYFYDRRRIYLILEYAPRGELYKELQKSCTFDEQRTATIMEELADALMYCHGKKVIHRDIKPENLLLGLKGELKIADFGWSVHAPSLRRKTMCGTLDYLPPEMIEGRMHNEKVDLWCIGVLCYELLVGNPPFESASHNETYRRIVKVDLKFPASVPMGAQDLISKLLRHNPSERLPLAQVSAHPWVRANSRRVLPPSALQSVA

- IC50 (Sik2): 12.4 nM
- IC50 (phosphorylase kinase): 18.5 nM
- IC50 (ARK5/Nuak1): 4.8 nM
- IC50 (Chk2): 13.6 nM
- IC50 (Chk1): 13.6 nM
- IC50 (Flt1/V-EGFR1): 37 nM
- IC50 (aurora B kinase): 118 nM
- IC50 (Tak1): 6 nM
- IC50 (Melk): 13.3 nM
Compound: Cc1c[nH]c(=O)c2c1[nH]c1ccc3cc(OCCN4CCCCC4)ccc3c12 [C5M, 3-(2-(Piperidin-1-yl)ethoxy)-8-methyl-7H, 10H-benzo[e]pyrido(4,3-b)indol-11-one maleate]
- kinase panel profiling at 250 nM, recombinant enzyme (MRC Dundee) (CaMKKβ): Among the fifteen best targets, we noted the presence of several AMPK-related kinases
